The results in this text go back to patent publication US20210371413A1, “POLYCYCLIC AMIDES AS CYTOTOXIC AGENTS” (FEMTOGENIX LIMITED, priority 2018, published 2021).

Structures are written as SMILES.

Experiment [1] relates to 5′-[…]-3′ (poly GC) DNA duplex. Put plainly: FRET DNA melting, poly GC duplex. Format: binding. The conditions noted are these: 5′-AATAGGGGGTCGCCTATT-3′. The method, then:
FRET DNA melting studies were undertaken on 15 and 16 using two fluorescently labelled sequences. The sequences (FIG. 1) were designed to represent poly AT and poly GC sequences.
The short duplexes used in this FRET study are relatively unstable in the duplex form with a melting temperature below 30° C. so that, in the absence of ligand, a large part of the melting occurs below the starting temperature of the experiment. However, it can be observed that 15 stabilizes the duplex form, producing increases in melting temperature with ΔTm values of […] for 5′-AAAAAAAGAAAAAATIT-3′ (FIG. 2, top panel), and ˜25° C. (FIG. 2, bottom panel).
Oligonucleotides were obtained from ATDbio (Southampton, UK) in lyophilised form. […]
The reaction mixture was comprised of 4 μL of 250 mM phosphate buffer (final concentration of 50 mM), 4 μL flourophor and 4 μL quencher molecule of the appropriate oligonucleotide for a final concentration of 0.2 μM, 4 μL 5 M sodium chloride (final concentration of 1 M NaCl), and 4 μL of distilled H2O. […] This mixture was analysed without prior annealing.
Fluorescence melting profiles were measured using a Roche LightCycler using a total reaction volume of 20 μL. […] Annealing steps and melting steps were all recorded and changes in fluorescence were measured at 520 nm. […]

Experiment [2] concerns U138-MG (Glioblastoma). As to the kind of experiment: In vitro cytotoxicity, MTT assay, U138-MG. Format: cell-based. To be noted: Homo sapiens, U138-MG, 72 h, read-out: Cytotoxicity. Here is the method:
The in vitro cytotoxicity of a selection of compounds were evaluated in a panel of cell lines using the standard MTT assay for a 72 hour incubation period (Table 2). Free payloads produced cytotoxicities in the nanomolar range.
Tumor cell lines were maintained in RPMI1640 medium supplemented with 10% heat-inactivated fetal bovine serum, 2 mM L-glutamine and 1 mM sodium pyruvate. 1800 cells per well were seeded in a volume of 180 μl in a 96-well flat bottom polystyrene plate. The cells were allowed to adhere overnight at 37° C. in a CO2 incubator. Ligands were initially formulated in DMSO, and stocks stored at −80° C. They were then further formulated at lox concentration in RPMI1640 medium. 20 ul of diluted samples were added into each treatment well. On each plate, blank wells with no cells, and untreated wells containing cells, were included. Plates were then cultured at 37° C. in a CO2 incubator for 72 hrs. Cytotoxicity was evaluated using a tetrazolium salt-based assay, the MTT assay. After 72 hours, the supernatant was removed from each well and 200 μl of a sterile filtered 500 μg/ml MTT solution in water added to each well. The plates were then incubated at 37° C. in a CO2 incubator for 4 hrs. The supernatant was then removed and the formazan crystals formed solubilized by adding 150 μl of DMSO to each well. The plate was then read on a plate reader at 540 nm, and percentage cell survival calculated as follows: ((mean absorbance treated wells at concentration x−mean absorbance blank wells)+(mean absorbance untreated wells at concentration x−mean absorbance blank wells))×100. Data were plotted as concentration in nM vs. % cell survival in Microsoft Excel, and IC50 values (concentration where cell survival is reduced by a half) were determined from the graph.

As to `COc1cc2c(cc1OCCCC(=O)Nc1cc(C(=O)Nc3ccc(-c4cc(C(=O)Nc5ccc(N)cc5)n(C)c4)cc3)n(C)c1)NC[C@@H]1CCCCN1C2=O` [Compound 16, (S)—N-(4-Aminophenyl)-4-(4-(4-(4-((2-methoxy-12-oxo-5,6,6a,7,8,9,10,12-octahydrobenzo[e]pyrido[1,2-a][1,4]diazepin-3-yl)oxy)butanamido)-1-methyl-1H-pyrrole-2-carboxamido)phenyl)-1-methyl-1H-pyrrole-2-carboxamide], in experiment [1], the “interactivity with the poly-GC sequence (FRET)” value was “little interactivity”. The IC50 in experiment [2] came out at 184 nM.
